The numbers were not newly measured in publication PMC5944417 (Heliyon, 2018), which cites them from elsewhere.

Targets include trypsin; plasmin; cathepsin B.
Settings in all cases: ref Maes et al., 2007
The subject of the next data set is porcine kallikrein.
In the next data set the test system is papain.
The next data set deals with endoproteinase Lys-C.

With `CC(=O)N[C@@H](CC(C)C)C(=O)N[C@@H](CC(C)C)C(=O)N[C@H](C=O)CCCNC(=N)N` [Leupeptin, N-acetyl-L-leucyl-L-leucyl-L-argininal], the values for the Ki on trypsin, on plasmin and on cathepsin B were 3.4 nM, 3.5 nM and 4.1 nM, respectively. The inhibition entry in the data set on porcine kallikrein, in the data set on papain and with endoproteinase Lys-C was “inhibited” each time.
